The values that follow come from US20070128217A1 (priority 2003, published 2007).

The subject of experiment [1] is rabbit serum obtained by immunizing a rabbit with the SARS-CoV strain Frankfurt 1. Format: binding. The arrangement: Binding of a rabbit serum to linear peptides / Binding of a rabbit serum to looped peptides / Rabbit serum linear peptides / Rabbit serum looped peptides / Binding of a rabbit serum to linear peptides of protein N of SARS-CoV Urbani (Rabbit serum linear peptides) / Binding of a rabbit serum to looped/cyclic peptides of protein N of SARS-CoV Urbani (Rabbit serum looped peptides): unit not given here.

The test system of experiment [2] is control sera (pooled serum of ten healthy LUMC hospital workers; commercial negative donor pooled serum from the Dutch bloodbank). In kind it is binding, human. Also on record: Binding of Control serum LUMC to linear peptides / Binding of Control serum Blood-bank to linear peptides / Binding of Control serum LUMC to looped peptides / Binding of Control Serum Blood-Bank to Looped peptides / Binding of Control serum LUMC to linear peptides of the protein M of SARS-CoV Urbani / Binding of Control serum Blood-bank to linear peptides of the protein M of SARS-CoV Urbani / Binding of Control serum LUMC to looped peptides of the protein M of SARS-CoV Urbani / Binding of Control Serum Blood-Bank to Looped peptides of the protein M of SARS-CoV Urbani: unit not given here.

Experiment [3] has as its system antibodies in sera from SARS patients (sera 1a, 1b, 2, 6, 37, 62, London, SARS-yellow, SARS-green). Format: binding, human. The arrangement: Binding of serum 6 to linear peptides of protein X1 of SARS-CoV Urbani / Binding of serum 37 to linear peptides of protein X1 of SARS-CoV Urbani / Binding of serum 6 to looped/cyclic peptide (PEPSCAN-ELISA) / Binding of serum 37 to looped/cyclic peptide (PEPSCAN-ELISA) / Binding of serum 37 to looped/cyclic peptides of protein X1 of SARS-CoV Urbani / Binding of serum 6 to linear peptides of protein X2 / Binding of serum 37 to linear peptides of protein X2 / Binding of serum 37 to looped/cyclic peptides of protein X2 of SARS-CoV Urbani / Binding of serum 6 to linear peptides of protein M of SARS-CoV Urbani / Binding of serum 37 to linear peptides of protein M of SARS-CoV Urbani / Binding of serum 6 to looped/cyclic peptides of protein M of SARS-CoV Urbani / Binding of serum 37 to looped/cyclic peptides of protein M of SARS-CoV Urbani / Binding of serum 6 to linear peptides of protein X3 of SARS-CoV Urbani / Binding of serum 37 to linear peptides of protein X3 of SARS-CoV Urbani / Binding of serum 37 to looped/cyclic peptides of protein X3 of SARS-CoV Urbani / Binding of serum 6 to linear peptides of protein X4 of SARS-CoV Urbani / Binding of serum 37 to linear peptides of protein X4 of SARS-CoV Urbani / Binding of serum 37 to looped/cyclic peptides of protein X4 of SARS-CoV Urbani / Binding of serum 6 to linear peptides of protein X5 of SARS-CoV Urbani / Binding of serum 37 to linear peptides of protein X5 of SARS-CoV Urbani / Binding of serum 37 to looped/cyclic peptides of protein X5 of SARS-CoV Urbani / Binding of serum 6 to linear peptides of protein N of SARS-CoV Urbani / Binding of serum 37 to linear peptides of protein N of SARS-CoV Urbani / Binding of serum 6 to linear peptide (PEPSCAN-ELISA) / Binding of serum 1a to looped/cyclic peptides of protein N of SARS-CoV Urbani / Binding of serum 1b to looped/cyclic peptides of protein N of SARS-CoV Urbani / Binding of serum 2 to looped/cyclic peptides of protein N of SARS-CoV Urbani / Binding of serum 6 to looped/cyclic peptides of protein N of SARS-CoV Urbani / Binding of serum 37 to looped/cyclic peptides of protein N of SARS-CoV Urbani / Binding of serum 62 to looped/cyclic peptides of protein N of SARS-CoV Urbani / Binding of serum London to looped/cyclic peptides of protein N of SARS-CoV Urbani / Binding of serum SARS-green to looped/cyclic peptides of protein N of SARS-CoV Urbani: unit not given here.

Turning to RCDIKDLPKEITVAT, in experiment [1], the “Rabbit serum linear peptides” value came to 0.0 and the “Rabbit serum looped peptides” value is listed as 0.3. For the same sequence, in experiment [2], the “Binding of Control Serum Blood-Bank to Looped peptides of the protein M of SARS-CoV Urbani” value stood at 0.6, the “Binding of Control serum Blood-bank to linear peptides of the protein M of SARS-CoV Urbani” value is 0.7, the “Binding of Control serum LUMC to linear peptides of the protein M of SARS-CoV Urbani” value stood at 0.5 and the “Binding of Control serum LUMC to looped peptides of the protein M of SARS-CoV Urbani” value came out at 0.7. Further, in experiment [3], the “Binding of serum 1a to linear peptides of protein M of SARS-CoV Urbani” value was 0.7, the “Binding of serum 1a to looped/cyclic peptides of protein M of SARS-CoV Urbani” value is on record as 0.6, the “Binding of serum 1b to linear peptides of protein M of SARS-CoV Urbani” value is reported as 0.5 and the “Binding of serum 1b to looped/cyclic peptides of protein M of SARS-CoV Urbani” value came to 0.4. Besides, in experiment [3], the “Binding of serum 2 to linear peptides of protein M of SARS-CoV Urbani” value was found to be 0.5, the “Binding of serum 2 to looped/cyclic peptides of protein M of SARS-CoV Urbani” value is 0.6, the “Binding of serum 6 to linear peptides of protein M of SARS-CoV Urbani” value is on record as 0.3 and the “Binding of serum 6 to looped/cyclic peptides of protein M of SARS-CoV Urbani” value was determined as 0.6. Further, in experiment [3], the “Binding of serum 37 to linear peptides of protein M of SARS-CoV Urbani” value stood at 0.5, the “Binding of serum 37 to looped/cyclic peptides of protein M of SARS-CoV Urbani” value worked out at 0.6, the “Binding of serum 62 to linear peptides of protein M of SARS-CoV Urbani” value stood at 0.6 and the “Binding of serum 62 to looped/cyclic peptides of protein M of SARS-CoV Urbani” value is on record as 0.6. Further, in experiment [3], the “Binding of serum London to linear peptides of protein M of SARS-CoV Urbani” value was determined as 0.3, the “Binding of serum London to looped/cyclic peptides of protein M of SARS-CoV Urbani” value is recorded as 0.2, the “Binding of serum SARS-green to linear peptides of protein M of SARS-CoV Urbani” value is given as 0.5 and the “Binding of serum SARS-green to looped/cyclic peptides of protein M of SARS-CoV Urbani” value is on record as 0.4. In experiment [3], the “Binding of serum SARS-yellow to linear peptides of protein M of SARS-CoV Urbani” value came to 0.2 and the “Binding of serum SARS-yellow to looped/cyclic peptides of protein M of SARS-CoV Urbani” value is 0.7.
As for RGNTYSTAWLCALGK, in experiment [1], the “Rabbit serum linear peptides” value is on record as 1.3 and the “Rabbit serum looped peptides” value is on record as 0.8. Besides, in experiment [2], the “Binding of Control Serum Blood-Bank to Looped peptides” value was 0.4, the “Binding of Control serum Blood-bank to linear peptides” value is 1.0, the “Binding of Control serum LUMC to linear peptides” value stood at 0.6 and the “Binding of Control serum LUMC to looped peptides” value worked out at 0.6. Moreover, in experiment [3], the “Binding of serum 1a to linear peptides of protein X5 of SARS-CoV Urbani” value worked out at 0.9, the “Binding of serum 1a to looped/cyclic peptides of protein X5 of SARS-CoV Urbani” value is on record as 0.4, the “Binding of serum 1b to linear peptides of protein X5 of SARS-CoV Urbani” value is listed as 0.6 and the “Binding of serum 1b to looped/cyclic peptides of protein X5 of SARS-CoV Urbani” value came out at 0.3. Besides, in experiment [3], the “Binding of serum 2 to linear peptides of protein X5 of SARS-CoV Urbani” value came out at 0.9, the “Binding of serum 2 to looped/cyclic peptides of protein X5 of SARS-CoV Urbani” value is given as 0.6, the “Binding of serum 6 to linear peptides of protein X5 of SARS-CoV Urbani” value is recorded as 0.7 and the “Binding of serum 6 to looped/cyclic peptides of protein X5 of SARS-CoV Urbani” value amounted to 0.9. In experiment [3], the “Binding of serum 37 to linear peptides of protein X5 of SARS-CoV Urbani” value is given as 0.8, the “Binding of serum 37 to looped/cyclic peptides of protein X5 of SARS-CoV Urbani” value is listed as 0.5, the “Binding of serum 62 to linear peptides of protein X5 of SARS-CoV Urbani” value is reported as 0.8 and the “Binding of serum 62 to looped/cyclic peptides of protein X5 of SARS-CoV Urbani” value came to 0.7. Also, in experiment [3], the “Binding of serum London to linear peptides of protein X5 of SARS-CoV Urbani” value came out at 0.8, the “Binding of serum London to looped/cyclic peptides of protein X5 of SARS-CoV Urbani” value is on record as 1.4, the “Binding of serum SARS-green to linear peptides of protein X5 of SARS-CoV Urbani” value stood at 0.6 and the “Binding of serum SARS-green to looped/cyclic peptides of protein X5 of SARS-CoV Urbani” value was 0.3. Moreover, in experiment [3], the “Binding of serum SARS-yellow to linear peptides of protein X5 of SARS-CoV Urbani” value was 0.3 and the “Binding of serum SARS-yellow to looped/cyclic peptides of protein X5 of SARS-CoV Urbani” value amounted to 0.5.
